Columns and labels:
Assay type in all cases: cell-based
[1] = tested on: MMP-13; assay: Quantification of MMP-13 by ELISA; conditions: compared to the untreated control
Description: (§1) In another aspect, this invention also refers to an in vitro method of assessing skin repair, that is suitable for studying a variety of active ingredients, comprised of the following steps: • Step 1—Initial Indication: quantification of the FGF-2 growth factor through the flow cytometry technique; • Step 2—Inflammation: quantification of inflammatory cytokines (IL-1B, IL-6, IL-8, IL-10, IL-12 p70) through the flow cytometry technique; • Step 3—Cell proliferation and migration: • Cell proliferation through the Neutral Red detection method; • Cell migration through the ECIS and Scratch method; • Step 4—Remodeling and Resolution • Quantification of matrix metalloproteinase MMP-13 through the Enzyme-Linked Immunosorbent Assay (ELISA) technique; • Determination of collagenase/gelatinase enzyme activity (MMP-1 and MMP-3) and elastase (MMP-1 2) through the enzyme inhibition assay.
(§2) All the tests were conducted in triplicate, with experiments repeated at least twice, using negative control groups (no stimulation with active ingredients) and positive control groups (stimulated with molecules modulating the marker to be assayed). […]
as §1, with “As a result,” for “In another aspect,”, “project encompassed the following” for “invention also refers to an”, “assays:” for “method of assessing skin repair, that is suitable for studying a variety of active ingredients, comprised of the following steps:”, “FGF2” for “FGF-2”

[2] = Cell proliferation, Neutral Red detection method; conditions: compared to the untreated control after 48 hours of treatment
Description: as §1, §2
as §1, with “As a result,” for “In another aspect,”, “project encompassed the following” for “invention also refers to an”, “assays:” for “method of assessing skin repair, that is suitable for studying a variety of active ingredients, comprised of the following steps:”, “FGF2” for “FGF-2”, “assay. […]” for “assay.”

[3] = tested on: FGF-2; assay: Quantification of FGF-2 growth factor by flow cytometry; conditions: in comparison to the negative control
Description: as §1, §2

[4] = tested on: IL-8; assay: Quantification of inflammatory cytokines by flow cytometry (IL-8); conditions: in terms of negative control
Description: as §1, §2

[5] = tested on: IL-10; assay: Quantification of inflammatory cytokines by flow cytometry (IL-10); conditions: in terms of negative control
Description: as §1, §2

Molecule	MMP-13 quantification, increase [1]	increase in cell proliferation (in words) [2]	FGF-2 increase [3]	IL-8 increase [4]	IL-10 increase [5]
NC(=O)NC1NC(=O)NC1=O (stereo not drawn) [allantoin]	threefold increases	did not present significant increases	–	–	–
madecassoside	threefold increases	did not present significant increases	up to 115 times	twofold increase	2.3 times
papain (protein, UniProt P00784 134-345, looked up, standard (enzyme)) Papain: IPEYVDWRQKGAVTPVKNQGSCGSCWAFSAVVTIEGIIKIRTGNLNEYSEQELLDCDRRSYGCNGGYPWSALQLVAQYGIHYRNTYPYEGVQRYCRSREKGPYAAKTDGVRQVQPYNEGALLYSIANQPVSVVLEAAGKDFQLYRGGIFVGPCGNKVDHAVAAVGYGPNYILIKNSWGTGWGENGYIRIKRGTGNSYGVCGLYTSSFYPVKN	threefold increases	did not present significant increases	–	–	–

Reference: patent US20190282492A1, “COSMETIC COMPOSITIONS FOR SKIN REPARATION” (Natura Cosméticos S.A., priority 2016, published 2019)
